Experimental findings from patent US7420056B2, “Substituted bicyclic imidazo-3-ylamine compounds” (Gruenenthal GmbH, priority 2004, dated 2008) are described below.

Sequence of mGluR5 receptor (I3LUI7 19-1212): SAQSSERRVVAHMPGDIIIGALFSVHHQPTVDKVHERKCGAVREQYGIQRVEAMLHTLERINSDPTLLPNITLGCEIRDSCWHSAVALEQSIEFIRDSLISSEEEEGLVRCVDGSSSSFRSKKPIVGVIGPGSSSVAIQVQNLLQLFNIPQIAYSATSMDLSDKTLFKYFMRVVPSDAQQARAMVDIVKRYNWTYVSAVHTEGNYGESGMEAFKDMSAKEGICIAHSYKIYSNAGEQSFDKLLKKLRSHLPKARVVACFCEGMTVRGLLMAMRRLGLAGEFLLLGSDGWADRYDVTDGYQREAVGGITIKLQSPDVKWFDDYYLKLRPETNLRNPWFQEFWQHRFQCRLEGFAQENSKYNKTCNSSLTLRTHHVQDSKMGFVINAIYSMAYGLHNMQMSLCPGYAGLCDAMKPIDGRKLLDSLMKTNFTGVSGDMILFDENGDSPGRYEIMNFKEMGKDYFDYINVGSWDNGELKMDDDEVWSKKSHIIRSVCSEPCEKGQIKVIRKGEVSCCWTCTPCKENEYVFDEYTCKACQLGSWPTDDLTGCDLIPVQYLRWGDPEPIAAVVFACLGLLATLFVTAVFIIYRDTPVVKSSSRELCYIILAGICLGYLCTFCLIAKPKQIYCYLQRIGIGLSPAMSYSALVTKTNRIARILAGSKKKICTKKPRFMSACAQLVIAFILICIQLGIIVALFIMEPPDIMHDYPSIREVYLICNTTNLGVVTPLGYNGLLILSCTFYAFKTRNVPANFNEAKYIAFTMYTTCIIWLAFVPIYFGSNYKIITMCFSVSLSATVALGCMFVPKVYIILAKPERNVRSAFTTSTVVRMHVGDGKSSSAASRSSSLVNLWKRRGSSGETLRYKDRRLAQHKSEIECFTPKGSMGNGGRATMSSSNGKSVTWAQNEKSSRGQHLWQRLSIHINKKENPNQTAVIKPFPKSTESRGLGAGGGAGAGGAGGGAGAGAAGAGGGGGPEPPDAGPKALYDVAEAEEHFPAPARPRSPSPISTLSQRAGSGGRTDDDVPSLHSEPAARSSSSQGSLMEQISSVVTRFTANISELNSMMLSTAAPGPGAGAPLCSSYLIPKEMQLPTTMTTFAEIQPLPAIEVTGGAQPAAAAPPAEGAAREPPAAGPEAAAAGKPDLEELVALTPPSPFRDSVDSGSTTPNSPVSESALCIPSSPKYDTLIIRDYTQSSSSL

For this assay, the target named is mGluR5 receptor (Sus scrofa, UniProt I3LUI7). As to the kind of experiment: Affinity for the mGluR5 receptor: inhibition of 3[H]-MPEP binding in pig brain homogenate. The note with it: 10 μM compound, 5 nM 3[H]-MPEP, read-out: mGluR5 receptor inhibition of ^3[H]-MPEP binding [10 μM] in % at a concentration of the example compounds of 10 μM. In outline:
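Test compounds were screened at 10 μM for displacement of 5 nM [3H]-MPEP from pig brain homogenate (450 μg protein, pH 8.0 Hepes buffer) over 60 min at room temperature. After filtration, scintillation counting gave the read-out. 10 μM unlabelled MPEP set nonspecific binding.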
For `CC(C)(C)CC(C)(C)Nc1c(-c2ccc(C#Cc3ccccc3)nc2)nc2ccccn12` [Example 284, 2-(6-(phenylethynyl)pyridin-3-yl)-N-(2,4,4-trimethylpentan-2-yl)imidazo[1,2-a]pyridin-3-amine], the inhibition at 10 µM turned out to be 68%.

In the case of `CC(C)(C)Nc1c(-c2ccc(C#Cc3ccccn3)o2)nc2ccccn12` [Example 285, N-tert-butyl-2-(5-(pyridin-2-ylethynyl)furan-2-yl)imidazo[1,2-a]pyridin-3-amine], the inhibition at 10 µM turned out to be 88%.

Turning to `C(#Cc1ccc(-c2nc3ccccn3c2NC2CCCCC2)o1)c1ccccn1` [Example 286, N-cyclohexyl-2-(5-(pyridin-2-ylethynyl)furan-2-yl)imidazo[1,2-a]pyridin-3-amine], the inhibition at 10 µM turned out to be 72%.

On to `Fc1ccc(Nc2c(-c3ccc(C#Cc4ccccn4)o3)nc3ccccn23)cc1` [Example 287, N-(4-fluorophenyl)-2-(5-(pyridin-2-ylethynyl)furan-2-yl)imidazo[1,2-a]pyridin-3-amine], for which the inhibition at 10 µM came to 30%.

`Cc1cccc(C#Cc2cccc(-c3nc4ccccn4c3NC3CCCCC3)c2)n1` [Example 288, N-cyclohexyl-2-(3-((6-methylpyridin-2-yl)ethynyl)phenyl)imidazo[1,2-a]pyridin-3-amine]: the inhibition at 10 µM amounted to 89%.

Take `Cc1cccc(C#Cc2cccc(-c3nc4ccccn4c3NC(C)(C)CC(C)(C)C)c2)n1` [Example 289, 2-(3-((6-methylpyridin-2-yl)ethynyl)phenyl)-N-(2,4,4-trimethylpentan-2-yl)imidazo[1,2-a]pyridin-3-amine]: the inhibition at 10 µM is 51%.

Consider `Cc1cccc(C#Cc2cccc(-c3nc4cccc(C)n4c3NC(C)(C)C)c2)n1` [Example 290, N-tert-butyl-5-methyl-2-(3-((6-methylpyridin-2-yl)ethynyl)phenyl)imidazo[1,2-a]pyridin-3-amine], for which the inhibition at 10 µM was 88%.

As to `Cc1cccc(C#Cc2cccc(-c3nc4cccc(C)n4c3NC(C)(C)CC(C)(C)C)c2)n1` [Example 291, 5-methyl-2-(3-((6-methylpyridin-2-yl)ethynyl)phenyl)-N-(2,4,4-trimethylpentan-2-yl)imidazo[1,2-a]pyridin-3-amine], the inhibition at 10 µM is 92%.

For the compound `Cc1cc(C)n2c(NC3CCCCC3)c(-c3cccc(C#Cc4ccccn4)c3)nc2n1` [Example 292, N-cyclohexyl-5,7-dimethyl-2-(3-(pyridin-2-ylethynyl)phenyl)imidazo[1,2-a]pyrimidin-3-amine], the inhibition at 10 µM came out at 88%.

For the compound `Cc1cc(C)n2c(NC3CCCCC3)c(-c3ccc(C#Cc4ccccc4)nc3C)nc2n1` [Example 293, N-cyclohexyl-5,7-dimethyl-2-(2-methyl-6-(phenylethynyl)pyridin-3-yl)imidazo[1,2-a]pyrimidin-3-amine], the inhibition at 10 µM amounted to 70%.

With `Cc1cc(C)n2c(NC3CCCC3)c(-c3ccc(C#Cc4ccccn4)o3)nc2n1` [Example 294, N-cyclopentyl-5,7-dimethyl-2-(5-(pyridin-2-ylethynyl)furan-2-yl)imidazo[1,2-a]pyrimidin-3-amine], the inhibition at 10 µM turned out to be 79%.

For the compound `Cc1cc(C)n2c(NC(C)(C)C)c(-c3ccc(C#Cc4ccccn4)o3)nc2n1` [Example 295, N-tert-butyl-5,7-dimethyl-2-(5-(pyridin-2-ylethynyl)furan-2-yl)imidazo[1,2-a]pyrimidin-3-amine], the inhibition at 10 µM was determined as 84%.

As to `Cc1cccn2c(Nc3ccc(F)cc3)c(-c3cccc(C#Cc4ccccn4)c3)nc12` [Example 296, N-(4-fluorophenyl)-8-methyl-2-(3-(pyridin-2-ylethynyl)phenyl)imidazo[1,2-a]pyridin-3-amine], the inhibition at 10 µM came to 85%.

For the compound `Cc1cccn2c(NC3CCCCC3)c(-c3ccc(C#Cc4ccccn4)cc3)nc12` [Example 297, N-cyclohexyl-8-methyl-2-(4-(pyridin-2-ylethynyl)phenyl)imidazo[1,2-a]pyridin-3-amine], the inhibition at 10 µM was 80%.

As for `CCc1ccn2c(NC3CCCCC3)c(-c3ccc(C#Cc4ccccn4)s3)nc2c1` [Example 298, N-cyclohexyl-7-ethyl-2-(5-(pyridin-2-ylethynyl)thiophen-2-yl)imidazo[1,2-a]pyridin-3-amine], the inhibition at 10 µM is 95%.

For `CCc1ccn2c(NC(C)(C)CC(C)(C)C)c(-c3ccc(C#Cc4ccccn4)s3)nc2c1` [Example 299, 7-ethyl-2-(5-(pyridin-2-ylethynyl)thiophen-2-yl)-N-(2,4,4-trimethylpentan-2-yl)imidazo[1,2-a]pyridin-3-amine], the inhibition at 10 µM came out at 86%.

For the compound `CCc1ccn2c(NC3CCCCC3)c(-c3cccc(C#Cc4ccccn4)c3)nc2c1` [Example 300, N-cyclohexyl-7-ethyl-2-(3-(pyridin-2-ylethynyl)phenyl)imidazo[1,2-a]pyridin-3-amine], the inhibition at 10 µM amounted to 50%.

Consider `CCc1ccn2c(NC3CCCC3)c(-c3ccc(C#Cc4ccccn4)cc3)nc2c1` [Example 301, N-cyclopentyl-7-ethyl-2-(4-(pyridin-2-ylethynyl)phenyl)imidazo[1,2-a]pyridin-3-amine], for which the inhibition at 10 µM was determined as 78%.

`CCc1ccn2c(NC3CCCC3)c(-c3ccc(C#Cc4ccccc4)nc3)nc2c1` [Example 302, N-cyclopentyl-7-ethyl-2-(6-(phenylethynyl)pyridin-3-yl)imidazo[1,2-a]pyridin-3-amine]: the inhibition at 10 µM came to 55%.

Take `CCc1ccn2c(NC(C)(C)C)c(-c3ccc(C#Cc4ccccc4)nc3)nc2c1` [Example 303, N-tert-butyl-7-ethyl-2-(6-(phenylethynyl)pyridin-3-yl)imidazo[1,2-a]pyridin-3-amine]: the inhibition at 10 µM stood at 67%.

As to `CCc1ccn2c(NC(C)(C)C)c(-c3ccc(C#Cc4ccccn4)o3)nc2c1` [Example 304, N-tert-butyl-7-ethyl-2-(5-(pyridin-2-ylethynyl)furan-2-yl)imidazo[1,2-a]pyridin-3-amine], the inhibition at 10 µM is 94%.

For the compound `CC(C)c1ccn2c(NC(C)(C)CC(C)(C)C)c(-c3ccc(C#Cc4ccccn4)s3)nc2c1` [Example 305, 7-isopropyl-2-(5-(pyridin-2-ylethynyl)thiophen-2-yl)-N-(2,4,4-trimethylpentan-2-yl)imidazo[1,2-a]pyridin-3-amine], the inhibition at 10 µM was found to be 75%.

Turning to `CC(C)c1ccn2c(NC(C)(C)C)c(-c3cccc(C#Cc4ccccn4)c3)nc2c1` [Example 306, N-tert-butyl-7-isopropyl-2-(3-(pyridin-2-ylethynyl)phenyl)imidazo[1,2-a]pyridin-3-amine], the inhibition at 10 µM was found to be 76%.

Turning to `CC(C)c1ccn2c(NC(C)(C)C)c(-c3ccc(C#Cc4ccccn4)cc3)nc2c1` [Example 307, N-tert-butyl-7-isopropyl-2-(4-(pyridin-2-ylethynyl)phenyl)imidazo[1,2-a]pyridin-3-amine], the inhibition at 10 µM stood at 88%.

On to `CC(C)c1ccn2c(NC3CCCCC3)c(-c3ccc(C#Cc4ccccn4)o3)nc2c1` [Example 308, N-cyclohexyl-7-isopropyl-2-(5-(pyridin-2-ylethynyl)furan-2-yl)imidazo[1,2-a]pyridin-3-amine], for which the inhibition at 10 µM was 70%.

With `Cc1cccc(C#Cc2cccc(-c3nc4cc(C(C)C)ccn4c3NC(C)(C)C)c2)n1` [Example 309, N-tert-butyl-7-isopropyl-2-(3-((6-methylpyridin-2-yl)ethynyl)phenyl)imidazo[1,2-a]pyridin-3-amine], the inhibition at 10 µM is 82%.

Take `Clc1ccc2nc(-c3ccc(C#Cc4ccccn4)s3)c(NC3CCCC3)n2c1` [Example 310, 6-chloro-N-cyclopentyl-2-(5-(pyridin-2-ylethynyl)thiophen-2-yl)imidazo[1,2-a]pyridin-3-amine]: the inhibition at 10 µM was 86%.

With `CC(C)(C)Nc1c(-c2ccc(C#Cc3ccccn3)s2)nc2ccc(Cl)cn12` [Example 311, N-tert-butyl-6-chloro-2-(5-(pyridin-2-ylethynyl)thiophen-2-yl)imidazo[1,2-a]pyridin-3-amine], the inhibition at 10 µM was 86%.

As for `Clc1ccc2nc(-c3cccc(C#Cc4ccccn4)c3)c(NC3CCCCC3)n2c1` [Example 312, 6-chloro-N-cyclohexyl-2-(3-(pyridin-2-ylethynyl)phenyl)imidazo[1,2-a]pyridin-3-amine], the inhibition at 10 µM stood at 64%.

For `CC(C)(C)CC(C)(C)Nc1c(-c2cccc(C#Cc3ccccn3)c2)nc2ccc(Cl)cn12` [Example 313, 6-chloro-2-(3-(pyridin-2-ylethynyl)phenyl)-N-(2,4,4-trimethylpentan-2-yl)imidazo[1,2-a]pyridin-3-amine], the inhibition at 10 µM came out at 33%.

As for `CC(C)(C)Nc1c(-c2ccc(C#Cc3ccccn3)cc2)nc2ccc(Cl)cn12` [Example 314, N-tert-butyl-6-chloro-2-(4-(pyridin-2-ylethynyl)phenyl)imidazo[1,2-a]pyridin-3-amine], the inhibition at 10 µM stood at 79%.

As for `Clc1ccc2nc(-c3ccc(C#Cc4ccccn4)cc3)c(NC3CCCCC3)n2c1` [Example 315, 6-chloro-N-cyclohexyl-2-(4-(pyridin-2-ylethynyl)phenyl)imidazo[1,2-a]pyridin-3-amine], the inhibition at 10 µM turned out to be 75%.

For the compound `CC(C)(C)Nc1c(-c2ccc(C#Cc3ccccn3)o2)nc2ccc(Cl)cn12` [Example 316, N-tert-butyl-6-chloro-2-(5-(pyridin-2-ylethynyl)furan-2-yl)imidazo[1,2-a]pyridin-3-amine], the inhibition at 10 µM is 55%.

With `Clc1ccc2nc(-c3ccc(C#Cc4ccccn4)o3)c(NC3CCCCC3)n2c1` [Example 317, 6-chloro-N-cyclohexyl-2-(5-(pyridin-2-ylethynyl)furan-2-yl)imidazo[1,2-a]pyridin-3-amine], the inhibition at 10 µM was found to be 58%.

For the compound `CC(C)(C)CC(C)(C)Nc1c(-c2ccc(C#Cc3ccccn3)o2)nc2ccc(Cl)cn12` [Example 318, 6-chloro-2-(5-(pyridin-2-ylethynyl)furan-2-yl)-N-(2,4,4-trimethylpentan-2-yl)imidazo[1,2-a]pyridin-3-amine], the inhibition at 10 µM was found to be 43%.
